Data reported in ChEMBL document CHEMBL3632542, “A computational view on the significance of E-ring in binding of (+)-arisugacin A to acetylcholinesterase” (Bioorg Med Chem Lett, 2015).

What follows are compounds tested against Acetylcholinesterase (Homo sapiens, UniProt P22303) (assay: Inhibition of human AChE).
Chain of Acetylcholinesterase (P22303 whole entry): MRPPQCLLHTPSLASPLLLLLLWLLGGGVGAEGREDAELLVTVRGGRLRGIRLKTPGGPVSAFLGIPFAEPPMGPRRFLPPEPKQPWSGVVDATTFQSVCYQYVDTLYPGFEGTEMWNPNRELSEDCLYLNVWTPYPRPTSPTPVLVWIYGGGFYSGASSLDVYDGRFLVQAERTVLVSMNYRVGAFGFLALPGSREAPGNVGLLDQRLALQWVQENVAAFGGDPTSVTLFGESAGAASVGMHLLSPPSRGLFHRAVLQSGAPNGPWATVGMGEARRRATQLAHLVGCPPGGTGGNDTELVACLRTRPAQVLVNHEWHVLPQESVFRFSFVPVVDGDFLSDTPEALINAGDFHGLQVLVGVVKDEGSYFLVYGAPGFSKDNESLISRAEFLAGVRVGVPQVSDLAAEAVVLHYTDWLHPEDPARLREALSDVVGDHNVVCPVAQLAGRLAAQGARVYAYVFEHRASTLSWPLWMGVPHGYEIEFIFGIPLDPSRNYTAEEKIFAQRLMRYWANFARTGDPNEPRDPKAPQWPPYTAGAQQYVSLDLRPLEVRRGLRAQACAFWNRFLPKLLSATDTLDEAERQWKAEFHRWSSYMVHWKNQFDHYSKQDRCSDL

First: COc1ccc(-c2cc3c(c(=O)o2)C[C@H]2[C@@](C)(CC[C@@]4(O)C(C)(C)[C@H](O)CC[C@]24C)O3)cc1
Second: COc1ccc(-c2cc3c(c(=O)o2)C[C@H]2[C@@](C)(CC[C@@]4(O)C(C)(C)C(=O)CC[C@]24C)O3)cc1
The IC50 of the first is higher: > 100000 nM for the first, 2500 nM for the second. The second is the more potent here.

`COc1cc(-c2cc3c(c(=O)o2)C[C@]2(O)[C@@]4(C)C(=O)C=CC(C)(C)[C@]4(O)CC[C@@]2(C)O3)cc(OC)c1O` and `COc1cc(-c2cc3c(c(=O)o2)C[C@]2(O)[C@@]4(C)C(=O)C=CC(C)(C)[C@]4(O)CC[C@@]2(C)O3)cc(OC)c1OC` [TERRITREM B] are within 1.5-fold of each other in IC50: 6.8 nM for the first, 7.6 nM for the second.

`COc1ccc(-c2cc3c(c(=O)o2)C[C@@H]2[C@@]4(C)CCC(=O)C(C)(C)[C@@H]4CC[C@@]2(C)O3)cc1` and `COc1ccc(-c2cc3c(c(=O)o2)C[C@@H]2[C@@]4(C)CC[C@H](O)C(C)(C)[C@@H]4CC[C@@]2(C)O3)cc1` cannot be ordered by IC50: > 100000 nM for the first, > 100000 nM for the second.

First: COc1ccc(-c2cc3c(c(=O)o2)C[C@]2(O)[C@@]4(C)CC[C@@H](OC(C)=O)C(C)(C)[C@]4(O)CC[C@@]2(C)O3)cc1
Second: COc1ccc(-c2cc3c(c(=O)o2)C[C@]2(O)[C@@]4(C)[C@@H](O)C[C@@H](OC(C)=O)C(C)(C)[C@]4(O)CC[C@@]2(C)O3)cc1
The IC50 of the first is lower: 3500 nM for the first, > 100000 nM for the second.
